Results reported in US11168086B2, “Methods of synthesizing pyrazine compounds” (Hoffmann-La Roche Inc., priority 2015, dated 2021).

Tested on: HBV
Assay: HBV inhibition assay: anti-HBV activity in vitro in HepG2.2.15 cells (extracellular HBV DNA by qPCR)
Type: cell-based
Details: Hepatitis B virus, 120 h, five days after compound treatment, extracellular HBV DNA in culture supernatant by qPCR, concentration at which HBV replication is inhibited by 50%
Excerpt: Example 441: HBV Inhibition Assays
Cell Line and Culture Conditions:
HepG2.2.15 is a stably-transfected cell line containing the HBV genome. It is derived from the hepatoblastoma cell line Hep G2 (American Type Culture Collection, ATCC® HB-8065™) by the published procedures described in reference: MA Selles et al. Proc. Natl. Acad. Sci. USA 1987, 84, 1005-1009. The cell line was maintained in Dulbecco's modified Eagle's medium (DMEM)-F12 medium supplemented with 10% fetal bovine serum, 100 U/mL penicillin, 100 μg/mL streptomycin, and 0.5 mg/mL of G418.
Anti-HBV Activity In Vitro:
HepG2.2.15 cells were seeded into 96-well plates (3×10^4 cells in 100 μL media per well) and incubated overnight at 37° C. The test compounds were serially half-log diluted in DMSO, then diluted 100 times in culture media. 100 μL diluted compounds were added into the plates to reach 0.5% final concentration of DMSO in every well. Five days after compound treatment, culture supernatant was collected for further analysis.
For quantitative PCR detection of extracellular HBV DNA, culture supernatant was processed by Proteinase K digestion. After heat inactivation of the enzyme, the samples were subjected to HBV DNA quantification by qPCR. The effective compound concentration at which
HBV replication is inhibited by 50% (EC50) was determined.

| SMILES | EC50 |
| --- | --- |
| C[C@H]1Cn2ncc(N3CCOCC3=O)c2CN1C(=O)Nc1cc(F)c(F)c(Cl)c1 [Example 235, (6S)—N-(3-chloro-4,5-difluoro-phenyl)-6-methyl-3-(3-oxomorpholin-4-yl)-6,7-dihydro-4H-pyrazolo[1,5-a]pyrazine-5-carboxamide] | 39 nM |
| CC1Cn2ncc(N3CCOC3=O)c2CN1C(=O)Nc1ccc(F)c(Cl)c1 (stereo not drawn) [Example 237, N-(3-chloro-4-fluoro-phenyl)-6-methyl-3-(2-oxooxazolidin-3-yl)-6,7-dihydro-4H-pyrazolo[1,5-a]pyrazine-5-carboxamide] | 74 nM |
| COC1CC(=O)N(c2cnn3c2CN(C(=O)Nc2ccc(F)c(Cl)c2)[C@@H](C)C3)C1 (stereo partly drawn) [Example 238, (6S)—N-(3-chloro-4-fluoro-phenyl)-3-(4-methoxy-2-oxo-pyrrolidin-1-yl)-6-methyl-6,7-dihydro-4H-pyrazolo[1,5-a]pyrazine-5-carboxamide] | 21 nM |
| C[C@H]1Cn2ncc(N3CCCC3=O)c2CN1C(=O)Nc1cc(F)c(F)c(C(F)F)c1 [Example 239, (6S)—N-[3-(difluoromethyl)-4,5-difluoro-phenyl]-6-methyl-3-(2-oxopyrrolidin-1-yl)-6,7-dihydro-4H-pyrazolo[1,5-a]pyrazine-5-carboxamide] | 38 nM |
| C[C@H]1Cn2ncc(N3CC(C#N)CC3=O)c2CN1C(=O)Nc1cc(F)c(F)c(F)c1 (stereo partly drawn) [Example 240, (6S)-3-(4-cyano-2-oxo-pyrrolidin-1-yl)-6-methyl-N-(3,4,5-trifluorophenyl)-6,7-dihydro-4H-pyrazolo[1,5-a]pyrazine-5-carboxamide] | 16 nM |
| C[C@H]1Cn2ncc(N3C[C@H](C#N)CC3=O)c2CN1C(=O)Nc1cc(F)c(F)c(F)c1 [Example 240-1, (6S)-3-[(4R)-4-cyano-2-oxo-pyrrolidin-1-yl]-6-methyl-N-(3,4,5-trifluorophenyl)-6,7-dihydro-4H-pyrazolo[1,5-a]pyrazine-5-carboxamide] | 55 nM |
| C[C@H]1Cn2ncc(N3C[C@@H](C#N)CC3=O)c2CN1C(=O)Nc1cc(F)c(F)c(F)c1 [Example 240-2, (6S)-3-[(4S)-4-cyano-2-oxo-pyrrolidin-1-yl]-6-methyl-N-(3,4,5-trifluorophenyl)-6,7-dihydro-4H-pyrazolo[1,5-a]pyrazine-5-carboxamide] | 9 nM |
| C[C@H]1Cn2ncc(N3CC(C(F)(F)F)CC3=O)c2CN1C(=O)Nc1ccnc(C(F)F)c1 (stereo partly drawn) [Example 241, (6S)—N-[2-(difluoromethyl)-4-pyridyl]-6-methyl-3-[2-oxo-4-(trifluoromethyl)pyrrolidin-1-yl]-6,7-dihydro-4H-pyrazolo[1,5-a]pyrazine-5-carboxamide] | 75 nM |
| CC1CN(c2cnn3c2CN(C(=O)Nc2cc(F)c(F)c(F)c2)[C@@H](C)C3)C(=O)CO1 (stereo partly drawn) [Example 243, (6S)-6-methyl-3-(2-methyl-5-oxo-morpholin-4-yl)-N-(3,4,5-trifluorophenyl)-6,7-dihydro-4H-pyrazolo[1,5-a]pyrazine-5-carboxamide] | 31 nM |
| C[C@H]1Cn2ncc(N3CC(C)(C)NC3=O)c2CN1C(=O)Nc1ccc(F)c(Cl)c1 [Example 245, (6S)—N-(3-chloro-4-fluoro-phenyl)-3-(4,4-dimethyl-2-oxo-imidazolidin-1-yl)-6-methyl-6,7-dihydro-4H-pyrazolo[1,5-a]pyrazine-5-carboxamide] | 53 nM |
| C[C@H]1Cn2ncc(N3CC(c4cnco4)CC3=O)c2CN1C(=O)Nc1cc(F)c(F)c(F)c1 (stereo partly drawn) [Example 247, (6S)-6-methyl-3-(4-oxazol-5-yl-2-oxo-pyrrolidin-1-yl)-N-(3,4,5-trifluorophenyl)-6,7-dihydro-4H-pyrazolo[1,5-a]pyrazine-5-carboxamide] | 14 nM |
| C[C@H]1Cn2ncc(N3CN(S(C)(=O)=O)CC3=O)c2CN1C(=O)Nc1cc(F)c(F)c(F)c1 [Example 248, (6S)-6-methyl-3-(3-methylsulfonyl-5-oxo-imidazolidin-1-yl)-N-(3,4,5-trifluorophenyl)-6,7-dihydro-4H-pyrazolo[1,5-a]pyrazine-5-carboxamide] | 93 nM |
